According to patent publication US10449208B2, “Antiviral prodrugs of tenofovir” (Merck Sharp & Dohme Corp., priority 2016, dated 2019):
Like-named read-outs stand apart in the source and are kept apart here.

Legend:
[1] = Prodrug stability assay in bio-relevant media (FaSSIF with Pancreatin, simulated gastrointestinal tract conditions); assay type: in vitro ADME; conditions: % parent prodrug remaining at 5 h vs 0 h, 37° C., 0.5 mg/mL Pancreatin in FaSSIF, HPLC area ratio
Description: Prodrug Stability Assay in Bio-Relevant Media
The following assay was employed to evaluate the stability of the prodrugs in simulated gastrointestinal tract conditions. Preparation of fasted state simulated intestinal fluid (FaSSIF) using Phares SIF Powder was carried out according to protocols from Phare Drug Delivery AG (Baselland, Switzerland). For sample preparation, 10 μL stock solutions (10 mM) of prodrug substance in DMSO was added to 990 μL of 0.5 mg/mL Pancreatin solution (Fisher CAS#8049-47-6) in FaSSIF. Two samples were prepared for each compound at initial. If the sample was clear solution at the beginning, ran one sample directly as initial by HPLC; if the sample was not clear at starting, diluted the sample by 100% ACN. Put the other sample under 37° C. and observed the sample at 5 h time-point. At 5 h time point, if the sample was clear solution then performed HPLC analysis directly; if it was not clear solution, diluted the sample by 100% ACN and assayed by HPLC. All the samples were vortexed for 3 min and observed before injection. For the diluted samples, the area will be multiplied by a factor when data analysis. The analysis was carried out with an Agilent 1100 series HPLC with autosampler. The column was usually a Poroshell 120 EC -C18, 4.6×50 mm, 2.7 μm. The flow rate was 1.8 mL/min, and the injection volume was 5 or 10 μL. UV detection was in the range 210-400 nm. The mobile phase consisted of solvent A (water plus 10 mM tetrabutylammonium bromide) and solvent B (acetonitrile) with a gradient of 90% solvent A at 0 min changing to 95% solvent B over 6 min, maintained for 1.5 min, then reverting to 90% solvent A over 1.6 min. The area of the parent in prodrug at 5h time point was divided by the area of the parent in prodrug at 0 h time point, to generate the % claimed parent ratio, which are summarized in Table 2 for GI Tract stability.

HIV-1 (H9/IIIB strain) = experiment: Multiple round HIV-1 infection assay (Viking assay) in MT4-GFP cells; assay type: cell-based; conditions: MT4-GFP cells infected with HIV-1 H9/IIIB, inhibition of reproductive ratio R0
Description: Assessing Antiviral Potency in a Multiple Round HIV-1 Infection Assay (Viking Assay)
The antiviral activity of the tenofovir prodrugs of the Examples herein was assessed in an assay that measures the rate of replication of HIV in cell culture, termed the Viking assay (Viral KINetics in Green cells) and performed as follows. HIV-1 replication was monitored using MT4-gag-GFP clone D3 (hereafter designated MT4-GFP), which are MT-4 cells modified to harbor a GFP reporter gene, the expression of which is dependent on the HIV-1 expressed proteins tat and rev. Productive infection of an MT4-GFP cell with HIV-1 results in GFP expression approximately 24 h post-infection. MT4-GFP cells were maintained at 37° C./5% CO2/90% relative humidity in RPMI 1640 supplemented with 10% fetal bovine serum, 100 μ/ml penicillin/streptomycin, and 400 μg/ml G418 to maintain the reporter gene. For infections, MT4-GFP cells were placed in the same medium lacking G418 and infected overnight with HIV-1 (H9/IIIB strain) virus at an approximate multiplicity of infection of 0.01 in the same incubation conditions. Cells were then washed and re-suspended in either RPMI 1640 supplemented with 10% or 50% normal human serum (NFIS) at 1.6×10^5 cells/mL (10% NHS or 50% NHS, respectively). Compound plates were prepared by dispensing compounds dissolved in DMSO into wells of 384 well poly-D -lysine-coated plates (0.2 μl/well) using an ECHO acoustic dispenser. Each compound was tested in a 10-point serial 3-fold dilution (typical final concentrations: 8.4 μM-0.42 nM). Controls included no inhibitor (DMSO only) and a combination of three antiviral agents (efavirenz, indinavir, an in-house integrase strand transfer inhibitor at final concentrations of 4 μM each). Cells were added (50 μL/well) to compound plates and the infected cells were maintained at 37° C./5% CO2/90% relative humidity.
infected cells were quantified at two time points, ˜48 h and ˜72 h post -infection, by counting the number of green cells in each well using an Acumen eX3 scanner. The increase in the number of green cells over ˜24 h period gives the reproductive ratio, R0, which is typically 5-15 and has been shown experimentally to be in logarithmic phase (data not shown). Inhibition of R0 is calculated for each well, and IC50s determined by non-linear 4-parameter curve fitting.

[2] = Human immunodeficiency virus 1, IIIB, 10% normal human serum, read-out: Viking, IC50 (10% NHS)
[3] = Human immunodeficiency virus 1, IIIB, 50% normal human serum, read-out: Viking, IC50 (50% NHS)
[4] = 10% normal human serum, read-out: Viking, IC50 (10% NHS)
[5] = 50% normal human serum, read-out: Viking, IC50 (50% NHS)

Structure (SMILES) | GI Tract stability [1] [%] | IC50 (HIV-1 (H9/IIIB strain); [2]) [nM] | IC50 (HIV-1 (H9/IIIB strain); [3]) [nM] | IC50 (HIV-1 (H9/IIIB strain); [4]) [nM] | IC50 (HIV-1 (H9/IIIB strain); [5]) [nM]
CC(C)OC(=O)[C@H](C)OP(=O)(CO[C@H](C)Cn1cnc2c(N)ncnc21)NC(C)(C)C(=O)OCc1ccccc1 (stereo partly drawn) [Example 41, Benzyl 2-((((((R)-1-(6-amino-9H-purin-9-yl)propan-2-yl)oxy)methyl)(((S)-1-isopropoxy-1-oxopropan-2-yl)oxy)phosphoryl)amino)-2-methylpropanoate] | 58.50 | 2.87 | 12.5 | – | –
CCCCOC(=O)C(C)(C)NP(=O)(CO[C@H](C)Cn1cnc2c(N)ncnc21)O[C@@H](C)C(=O)OC(C)C (stereo partly drawn) [Example 25, Butyl 2-((((((R)-1-(6-amino-9H-purin-9-yl)propan-2-yl)oxy)methyl)(((S)-1-isopropoxy-1-oxopropan-2-yl)oxy)phosphoryl)amino)-2-methylpropanoate] | 79.61 | 2.44 | 10.5 | – | –
CCCCCCOC(=O)C(C)(C)NP(=O)(CO[C@H](C)Cn1cnc2c(N)ncnc21)O[C@@H](C)C(=O)OC(C)C (single isomer, unassigned) [Example 7A] | 15.36 | – | – | 5.03 | 21
CC(C)OC(=O)[C@H](C)OP(=O)(CO[C@H](C)Cn1cnc2c(N)ncnc21)NC1(C(=O)OC(C)C)CC1 (stereo partly drawn) [Example 47, Isopropyl 1-((((((R)-1-(6-amino-9H-purin-9-yl)propan-2-yl)oxy)methyl)(((S)-1-isopropoxy-1-oxopropan-2-yl)oxy)phosphoryl)amino) cyclopropane-1-carboxylate] | 93.55 | 91.6 | 209 | – | –
CCCOC(=O)C(C)(C)NP(=O)(CO[C@H](C)Cn1cnc2c(N)ncnc21)O[C@H](C)C(=O)OC(C)C (stereo partly drawn) [Example 23, Propyl 2-((((((R)-1-(6-amino-9H-purin-9-yl)propan-2-yl)oxy)methyl)(((R)-1-isopropoxy-1-oxopropan-2-yl)oxy)phosphoryl)amino)-2-methylpropanoate] | 4.28 | 2.67 | 8.19 | – | –
CCCOC(=O)C(C)(C)NP(=O)(CO[C@H](C)Cn1cnc2c(N)ncnc21)OCC(=O)OC(C)C (stereo partly drawn) [Example 21, Propyl 2-((((((R)-1-(6-amino-9H-purin-9-yl)propan-2-yl)oxy)methyl)(2-isopropoxy-2-oxoethoxy)phosphoryl)amino)-2-methylpropanoate] | 99.36 | 6.15 | 12 | – | –
CC(C)OC(=O)COP(=O)(CO[C@H](C)Cn1cnc2c(N)ncnc21)NC(C)(C)C(=O)OC(C)C (single isomer, unassigned) [Example 3B] | 95.71 | – | – | 29.1 | 47.9
CCCOC(=O)C(C)(C)NP(=O)(CO[C@H](C)Cn1cnc2c(N)ncnc21)O[C@@H](C)C(=O)OC(C)C (stereo partly drawn) [Example 22, Propyl 2-((((((R)-1-(6-amino-9H-purin-9-yl)propan-2-yl)oxy)methyl)(((S)-1-isopropoxy-1-oxopropan-2-yl)oxy)phosphoryl)amino)-2-methylpropanoate] | 79.24 | 4.65 | 17.7 | – | –
CCCOC(=O)C(C)(C)NP(=O)(CO[C@H](C)Cn1cnc2c(N)ncnc21)OCC(=O)OC1CCCC1 (stereo partly drawn) [Example 38, Propyl 2-((((((R)-1-(6-amino-9H-purin-9-yl)propan-2-yl)oxy)methyl)(2-(cyclopentyloxy)-2-oxoethoxy)phosphoryl)amino)-2-methylpropanoate] | 96.64 | 2.68 | 6.26 | – | –
CC(C)OC(=O)COP(=O)(CO[C@H](C)Cn1cnc2c(N)ncnc21)NC1(C(=O)OC(C)C)CC1 (stereo partly drawn) [Example 46, Isopropyl 1-((((((R)-1-(6-amino-9H-purin-9-yl)propan-2-yl)oxy)methyl)(2-isopropoxy-2-oxoethoxy)phosphoryl)amino) cyclopropane-1-carboxylate] | 98.18 | 386 | 703 | – | –
CCCCCCOC(=O)C(C)(C)NP(=O)(CO[C@H](C)Cn1cnc2c(N)ncnc21)O[C@H](C)C(=O)OC(C)C (single isomer, unassigned) [Example 9B] | 6.16 | – | – | 1 | 2.78
CC(C)OC(=O)[C@@H](C)OP(=O)(CO[C@H](C)Cn1cnc2c(N)ncnc21)NC(C)(C)C(=O)OC(C)C (stereo partly drawn) [Example 20, Isopropyl 2-((((((R)-1-(6-amino-9H-purin-9-yl)propan-2-yl)oxy)methyl)(((R)-1-isopropoxy-1-oxopropan-2-yl)oxy)phosphoryl)amino)-2-methylpropanoate] | 7.19 | 21 | 97 | – | –
CC(C)OC(=O)COP(=O)(CO[C@H](C)Cn1cnc2c(N)ncnc21)NC(C)(C)C(=O)OC(C)C (single isomer, unassigned) [Example 3A] | 96.63 | 36.6 | – | – | 121
CCCCOC(=O)C(C)(C)NP(=O)(CO[C@H](C)Cn1cnc2c(N)ncnc21)OCC(=O)OC(C)C (stereo partly drawn) [Example 24, Butyl 2-((((((R)-1-(6-amino-9H-purin-9-yl)propan-2-yl)oxy)methyl)(2-isopropoxy-2-oxoethoxy)phosphoryl)amino)-2-methylpropanoate] | 98.30 | 4.78 | 27.8 | – | –
CCCCCOC(=O)C(C)(C)NP(=O)(CO[C@H](C)Cn1cnc2c(N)ncnc21)O[C@@H](C)C(=O)OC1CCCC1 (single isomer, unassigned) [Example 19B] | 100.00 | – | – | 3.01 | 9.93
CC(C)OC(=O)[C@H](C)OP(=O)(CO[C@H](C)Cn1cnc2c(N)ncnc21)NC(C)(C)C(=O)OC1CCCC1 (single isomer, unassigned) [Example 18A] | 76.31 | – | 16.5 | 6.59 | –
CCCCCCOC(=O)C(C)(C)NP(=O)(CO[C@H](C)Cn1cnc2c(N)ncnc21)OCC(=O)OC(C)C (single isomer, unassigned) [Example 6B] | 73.16 | – | – | 2.14 | 7.99
CCCCCOC(=O)C(C)(C)NP(=O)(CO[C@H](C)Cn1cnc2c(N)ncnc21)OCC(=O)OC1CCCC1 (stereo partly drawn) [Example 36, Pentyl 2-((((((R)-1-(6-amino-9H-purin-9-yl)propan-2-yl)oxy)methyl)(2-(cyclopentyloxy)-2-oxoethoxy)phosphoryl)amino)-2-methylpropanoate] | 88.87 | 2.39 | 6.04 | – | –
CC(C)OC(=O)C(C)(C)NP(=O)(CO[C@H](C)Cn1cnc2c(N)ncnc21)O[C@@H](C)C(=O)OC1CCCC1 (single isomer, unassigned) [Example 13B] | 99.72 | – | – | 9.44 | 60.2
